Data reported in publication PMC6098982 (Natural product research, 2018).
pIC50: −log10 of the molar value.

Key:
CB2 receptor = CB2 receptor (Homo sapiens, UniProt P34972); experiment: CB2 receptor displacement; assay type: binding
Delta opioid receptor = Delta opioid receptor (Homo sapiens, UniProt P41143); experiment: Delta opioid receptor displacement; assay type: binding
Mu opioid receptor = Mu opioid receptor (Homo sapiens, UniProt P35372); experiment: Mu opioid receptor displacement; assay type: binding
Sequence of Mu opioid receptor (P35372 whole entry): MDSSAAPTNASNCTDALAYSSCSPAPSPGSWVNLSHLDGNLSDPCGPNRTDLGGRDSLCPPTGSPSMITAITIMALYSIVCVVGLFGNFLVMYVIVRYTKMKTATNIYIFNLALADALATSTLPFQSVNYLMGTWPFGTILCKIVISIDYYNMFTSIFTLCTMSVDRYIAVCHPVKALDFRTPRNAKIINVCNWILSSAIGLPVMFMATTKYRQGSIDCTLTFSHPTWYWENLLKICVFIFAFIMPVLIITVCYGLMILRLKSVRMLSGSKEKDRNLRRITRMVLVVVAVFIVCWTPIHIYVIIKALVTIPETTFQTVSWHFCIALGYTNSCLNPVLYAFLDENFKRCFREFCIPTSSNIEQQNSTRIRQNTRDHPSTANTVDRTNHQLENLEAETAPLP

Trypanosoma brucei = experiment: Inhibition of Trypanosoma brucei; assay type: cell-based
Leishmania donovani = experiment: Activity towards Leishmania donovani; assay type: cell-based
Escherichia coli = experiment: Inhibition of Escherichia coli; assay type: cell-based

Sequence of CB2 receptor (P34972 whole entry): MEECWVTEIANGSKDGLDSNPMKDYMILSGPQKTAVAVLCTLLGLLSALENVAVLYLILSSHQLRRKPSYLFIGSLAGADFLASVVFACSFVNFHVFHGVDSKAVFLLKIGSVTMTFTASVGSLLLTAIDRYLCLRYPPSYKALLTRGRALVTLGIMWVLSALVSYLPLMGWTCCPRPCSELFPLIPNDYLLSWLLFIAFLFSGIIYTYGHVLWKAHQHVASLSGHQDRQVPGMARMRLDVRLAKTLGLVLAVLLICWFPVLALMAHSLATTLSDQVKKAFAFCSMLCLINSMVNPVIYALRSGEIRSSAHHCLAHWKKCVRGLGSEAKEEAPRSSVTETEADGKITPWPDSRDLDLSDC
Sequence of Delta opioid receptor (P41143 whole entry): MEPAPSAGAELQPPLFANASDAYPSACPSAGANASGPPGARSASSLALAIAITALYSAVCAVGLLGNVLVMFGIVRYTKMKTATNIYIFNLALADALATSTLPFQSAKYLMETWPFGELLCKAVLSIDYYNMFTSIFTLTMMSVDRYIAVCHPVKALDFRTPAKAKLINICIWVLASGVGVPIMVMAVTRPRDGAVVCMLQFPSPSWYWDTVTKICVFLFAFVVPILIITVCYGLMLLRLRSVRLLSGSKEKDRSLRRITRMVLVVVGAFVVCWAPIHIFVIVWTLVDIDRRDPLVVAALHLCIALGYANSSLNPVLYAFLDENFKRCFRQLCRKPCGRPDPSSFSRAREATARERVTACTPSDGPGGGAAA

pIC50 (CB2 receptor) | displacement in CB2 receptor (CB2 receptor) | displacement in Delta opioid receptor (Delta opioid receptor) | displacement in Mu opioid receptor (Mu opioid receptor) | pIC50 (Trypanosoma brucei; Trypanosoma brucei, read-out: IC50 T. brucei) | pIC50 (Leishmania donovani; Leishmania donovani, read-out: IC50 Leishmania donovani) | Molecule | inhibition towards Trypanosoma brucei (Trypanosoma brucei) | activity towards Leishmania donovani (Leishmania donovani) | inhibition towards Escherichia coli Pinh (Escherichia coli) | pIC50 (Escherichia coli; read-out: IC50 Escherichia coli)
4.25 | 73% | 65% | 49% | 5.38 | 5.03 | CC1=C[C@H](O)CC(C)(C)[C@H]1/C=C/C(C)=C/C=C/C(C)=C/C=C/C=C(C)/C=C/C=C(C)/C=C/C1=C(C)C[C@@H](O)CC1(C)C [Compound 4, lutein] | 93% | 48% |  | 
 |  |  |  |  |  | myricitrin [Compound 11] |  |  | 99% | 5.95
